According to patent US8361988B2, “Nucleoside and nucleotide analogues with quaternary carbon centers and methods of use” (Institut de Recherches Cliniques de Montreal, priority 2007, dated 2013):

Legend:
[1] = molecular target: T1, Drosophila melanogaster dNK (Drosophila melanogaster, UniProt Q9XZT6); assay: Phosphorylation assay (spectrophotometric coupled-enzyme), D. melanogaster dNK; format: biochemical; conditions: substrate at 100 μM, 37° C., 1 mM ATP, triplicate
T1 sequence (Q9XZT6 1-250): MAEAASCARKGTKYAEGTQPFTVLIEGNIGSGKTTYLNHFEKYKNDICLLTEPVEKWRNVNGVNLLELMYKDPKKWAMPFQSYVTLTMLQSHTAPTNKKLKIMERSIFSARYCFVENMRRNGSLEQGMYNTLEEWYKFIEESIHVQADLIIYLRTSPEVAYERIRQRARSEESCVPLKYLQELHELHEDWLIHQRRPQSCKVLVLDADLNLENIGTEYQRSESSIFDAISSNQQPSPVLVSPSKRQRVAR
Protocol: Compounds of the invention were also tested in a phosphorylation assay using three deoxynucleoside kinases. […] The compounds were at substrate concentration of 100 μM.
Kinetic assay. […] Briefly, the individual nucleosides at 100 μM were prepared in reaction buffer containing 50 mM Tris-HCl (pH 7.5), 0.1 M KCl, 5 mM MgCl2, 1 mM DTT, 1 mM ATP, 0.21 mM phosphoenolpyruvate, 0.18 mM NADH, and 2 units/ml pyruvate kinase and 2 units/ml lactate dehydrogenase (Roche Biochemicals, Indianapolis, Ind.). Assays were performed at 37° C. by measuring the absorbance change at 340 nm. The enzyme amount was adjusted to limit NADH turnover to 10% over the time of the experiment. All experiments were performed in triplicate.

[2] = molecular target: Thermotoga maritima thymidine kinase (Thermotoga maritima, UniProt Q9WYN2); assay: Phosphorylation assay (spectrophotometric coupled-enzyme), T. maritima TK; format: biochemical; conditions: substrate at 100 μM, 37° C., 1 mM ATP, triplicate
Thermotoga maritima thymidine kinase, sequence (Q9WYN2 whole entry): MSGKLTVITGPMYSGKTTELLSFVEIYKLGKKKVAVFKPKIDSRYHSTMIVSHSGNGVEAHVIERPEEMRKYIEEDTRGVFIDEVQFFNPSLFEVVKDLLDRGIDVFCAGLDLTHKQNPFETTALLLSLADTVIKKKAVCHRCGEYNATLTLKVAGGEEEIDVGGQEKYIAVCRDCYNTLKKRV
Protocol: Compounds of the invention were also tested in a phosphorylation assay using three deoxynucleoside kinases. The kinases include human dCK, which is responsible for the activation of numerous nucleoside analog prodrugs; Drosophila melanogaster dNK, which is the fastest known kinases with the broadest substrate specificity profile; and Thermotoga maritima thymidine kinase, which is a good surrogate for human thymidine kinase 1, a member of the distinct type II kinase subfamily. The compounds were at substrate concentration of 100 μM.
Kinetic assay. Substrate phosphorylation was determined using a spectrophotometric coupled-enzyme assay (Munch-Petersen et al. (2000) J. Biol. Chem. vol. 275p. 66′73-66′79; Schelling et al. (2001) Anal. Biochem vol. 295 p. 82-8′7). Briefly, the individual nucleosides at 100 μM were prepared in reaction buffer containing 50 mM Tris-HCl (pH 7.5), 0.1 M KCl, 5 mM MgCl2, 1 mM DTT, 1 mM ATP, 0.21 mM phosphoenolpyruvate, 0.18 mM NADH, and 2 units/ml pyruvate kinase and 2 units/ml lactate dehydrogenase (Roche Biochemicals, Indianapolis, Ind.). Assays were performed at 37° C. by measuring the absorbance change at 340 nm. The enzyme amount was adjusted to limit NADH turnover to 10% over the time of the experiment. All experiments were performed in triplicate.

[3] = MTT cell proliferation assay, PFSK-1; format: cell-based; conditions: human, PFSK-1 cells, concentration causing 50% cell death of initial cell count over 24 hours, 1% DMSO
Protocol: (§1) The antitumor activities of the compounds of the invention were evaluated by a cellular proliferation assay. […] The cleavage reaction form a purple formazan crystals which is largely impermeable to cell membranes resulting in its accumulation within healthy cells. Solubilisation of the cells by addition of a detergent liberates and solubilizes the formazan crystals. The number of surviving cells is directly proportional to the level of the formazan product created. The color can then be quantified spectrophotometrically. The production of purple formazan in cells treated with a compound is measured relative to the production in control cells, and dose-response curves can be generated. This assay measures the cell proliferation rate and conversely, when metabolic events lead to apoptosis or necrosis, the reduction in cell viability, thus also allowing the evaluation of the cytotoxicity of the analogues synthesized in the laboratory.
(§2) For Tables 3 and 4, the assays were performed with 1% DMSO. The abbreviation “n.d.” means “not determined.” The values EC50, CC50, and SI have the following definitions.
(§3) Cell growth equals total cell count without any inhibitor after 72 hours minus initial cell count.
(§4) SI: Selectivity Index is the ratio CC50/EC50.

PFSK-1 = assay: MTT cell proliferation assay, PFSK-1; format: cell-based; conditions: Homo sapiens, PFSK-1, 72 h, concentration reducing cell growth by 50% after 72 hours, 1% DMSO
Protocol: as §1, §2, §3, §4

[4] = MTT cell proliferation assay, ZR-75-1; format: cell-based; conditions: human, ZR-75-1 cells, concentration causing 50% cell death of initial cell count over 24 hours, 1% DMSO
Protocol: (§5) The antitumor activities of the compounds of the invention were evaluated by a cellular proliferation assay. The MTT [3-(4,5-dimethylthiazol-2-yl)-2,5-diphenyltetrazolium bromide] cell proliferation assay, first described by Mosmann (Mosmann T., “Rapid colorimetric assay for cellular growth and survival: application to proliferation and cytotoxicity assays,” J. Immunol. Methods 1983 Dec. 16; 65(1-2):55-63, and incorporated by reference in its entirety) is based on the ability of active mitochondrial reductase enzymes from viable cells to cleave the tetrazolium rings of the pale yellow MTT. The cleavage reaction form a purple formazan crystals which is largely impermeable to cell membranes resulting in its accumulation within healthy cells. Solubilisation of the cells by addition of a detergent liberates and solubilizes the formazan crystals. The number of surviving cells is directly proportional to the level of the formazan product created. The color can then be quantified spectrophotometrically. The production of purple formazan in cells treated with a compound is measured relative to the production in control cells, and dose-response curves can be generated. This assay measures the cell proliferation rate and conversely, when metabolic events lead to apoptosis or necrosis, the reduction in cell viability, thus also allowing the evaluation of the cytotoxicity of the analogues synthesized in the laboratory.
as §2
(§6) Cell growth equals total cell count without any inhibitor after 72 hours minus initial cell count. Total cell counts after 72 hrs of growth range from 230 to 346% of initial cell counts depending on the cell line.
(§7) Total cell counts after 24 hrs of growth range from 103 to 109% of initial cell counts depending on the cell line.
as §4

ZR-75-1 = assay: MTT cell proliferation assay, ZR-75-1; format: cell-based; conditions: Homo sapiens, ZR-75-1, 72 h, concentration reducing cell growth by 50% after 72 hours, 1% DMSO
Protocol: as §5, §2, §6, §7, §4

in vitro [5] = conditions: human, NCI H1395 cells
in vitro [6] = conditions: human, NCI H2052 cells
in vitro [7] = conditions: human, MOLT-4 cells

Row | SMILES | D. melanogaster dNK substrate phosphorylation [1] | T. maritima TK substrate phosphorylation [2] | CC50 at 24 h [3] [µM] | EC50 (PFSK-1) [µM] | CC50 at 24 h [4] [µM] | EC50 (ZR-75-1) [µM] | CC50 at 24 h (in vitro [5]) [µM] | CC50 at 24 h (in vitro [6]) [µM] | CC50 at 24 h (in vitro [7]) [µM] | D. melanogaster dNK substrate phosphorylation ([1]; listed as LCB-1023-1) | T. maritima TK substrate phosphorylation ([2]; listed as LCB-1023-1) | D. melanogaster dNK substrate phosphorylation ([1]; listed as LCB-1004-1) | T. maritima TK substrate phosphorylation ([2]; listed as LCB-1004-1) | D. melanogaster dNK substrate phosphorylation ([1]; listed as LCB-1007-1)
1 | COC(=O)C1(C)CC(n2cc(C)c(=O)[nH]c2=O)OC1CO (racemic) [LCB-1010-2, (±) methyl 2-(hydroxymethyl)-3-methyl-5-(5-methyl-2,4-dioxo-3,4-dihydropyrimidin-1(2H)-yl)tetrahydrofuran-3-carboxylate] | 2.13 10^6 μmol/min mg | 5.6 10^−3 μmol/min mg |  |  |  |  |  |  |  |  |  |  |  | 
2 | COC(=O)C1(C)C[C@@H](n2ccc(=O)[nH]c2=O)O[C@@H]1CO (mixture of isomers) [LCB-1002] | <0.1 10^6 μmol/min mg | 2.2 10^−3 μmol/min mg | > 500 | > 500 | > 500 | > 500 | 493 | 423 |  |  |  |  |  | 
3 | COC(=O)C1(C)C[C@H](n2ccc(=O)[nH]c2=O)O[C@@H]1CO (mixture of isomers) [LCB-1005] | <0.1 10^6 μmol/min mg | <1 10^−3 μmol/min mg | > 500 | > 500 | > 500 | > 500 | > 500 | > 500 |  |  |  |  |  | 
4 | Cc1cn([C@H]2CC(C)(CO)[C@@H](CO)O2)c(=O)[nH]c1=O (mixture of isomers) [LCB-1032, (±) 1-(-4,5-bis(hydroxymethyl)-4-methyltetrahydrofuran-2-yl)-5-methylpyrimidine-2,4(1H,3H)-dione] |  |  |  |  |  |  |  |  | > 500 |  |  |  |  | 
5 | C[C@@]12CC(n3cc(F)c(N)nc3=O)O[C@@H]1COC2=O (mixture of isomers) [LCB-1028] |  |  | > 500 | > 500 | > 500 | > 500 | > 500 | > 500 | > 500 |  |  |  |  | 
6 | C[C@@]12CC(n3ccc(N)nc3=O)O[C@@H]1COC2=O (mixture of isomers) [LCB-1029] |  |  | > 500 | > 500 | > 500 | > 500 | > 500 | > 500 | > 500 |  |  |  |  | 
7 | COC(=O)C1(C)C[C@@H](n2cc(C)c(=O)[nH]c2=O)O[C@@H]1CO (mixture of isomers) [LCB-1001] | <0.1 10^6 μmol/min mg | <1 10^−3 μmol/min mg | > 500 | > 500 | > 500 | > 500 | > 500 | 295 |  |  |  |  |  | 
8 | COC(=O)C1(C)C[C@H](n2cc(F)c(=O)[nH]c2=O)O[C@@H]1CO (mixture of isomers) [LCB-1023, 5-(5-Fluoro-2,4-dioxo-3,4-dihydro-2H-pyrimidin-1-yl)-2-hydroxymethyl-3-methyl-tetrahydro-furan-3-carhoxylic acid methyl ester] |  |  |  |  |  |  |  |  |  | 0.33 10^6 μmol/min mg | 2.1 10^−3 μmol/min mg |  |  | 
9 | Cc1cn([C@@H]2CC(C)(CO)[C@@H](CO)O2)c(=O)[nH]c1=O (mixture of isomers) [LCB-1004] |  |  | > 500 | > 500 | > 500 | 420 | > 500 | > 500 |  |  |  | 4.2 10^6 μmol/min mg | 4.1 10^−3 μmol/min mg | 
10 | COC(=O)C1(C)C[C@H](n2cc(C)c(=O)[nH]c2=O)O[C@@H]1CO (mixture of isomers) [LCB-1009-2] | 3.44 10^6 μmol/min mg | 4.9 10^−3 μmol/min mg |  |  |  |  |  |  |  |  |  |  |  | 
11 | Cc1cn([C@@H]2CC(C)(CO)[C@@H](CO)O2)c(=O)[nH]c1=O (mixture of isomers) [LCB-1004-2] | 3.7 10^6 μmol/min mg | <1 10^−3 μmol/min mg |  |  |  |  |  |  |  |  |  |  |  | 
12 | Cc1cn([C@H]2C[C@H](O)[C@@H](CO)O2)c(=O)[nH]c1=O [Thymidine, reference compound] |  | 830 10^−3 μmol/min mg |  |  |  |  |  |  |  |  |  |  |  | 
13 | CC1(C(N)=O)CC(n2cc(F)c(N)nc2=O)O[C@@H]1CO (mixture of isomers) [LCB-1030] |  |  | > 500 | > 500 | > 500 | > 500 | > 500 | > 500 | > 500 |  |  |  |  | 
14 | Cc1cn([C@H]2CC(C)(CO)[C@@H](CO)O2)c(=O)[nH]c1=O (mixture of isomers) [LCB-1007-2] | 0.74 10^6 μmol/min mg | 2.2 10^−3 μmol/min mg |  |  |  |  |  |  |  |  |  |  |  | 
15 | CC1(CO)C[C@@H](n2ccc(=O)[nH]c2=O)O[C@@H]1CO (mixture of isomers) [LCB-1008] | 0.36 10^6 μmol/min mg | <1 10^−3 μmol/min mg | > 500 | > 500 | > 500 | > 500 | > 500 | > 500 |  |  |  |  |  | 
16 | Cc1cn([C@H]2CC(C)(CO)[C@@H](CO)O2)c(=O)[nH]c1=O (mixture of isomers) [LCB-1007] |  | 2.2 10^−3 μmol/min mg | > 500 | > 500 | > 500 | 460 | > 500 | > 500 |  |  |  |  |  | 0.84 10^6 μmol/min mg
17 | CC1(CO)C[C@H](n2ccc(=O)[nH]c2=O)O[C@@H]1CO (mixture of isomers) [LCB-1006] | 0.22 10^6 μmol/min mg | 2.7 10^−3 μmol/min mg | > 500 | > 500 | > 500 | > 500 | > 500 | > 500 |  |  |  |  |  | 
